Measured values as given in the NIST ThermoML archive (doi:10.1016/j.fluid.2005.03.014).
± gives the expanded uncertainty stated by the source.

Legend:
[1] = Liquid; for mass density: 298.15 K, 101.33 kPa
[2] = refractive index (Na D-line) (dimensionless); details: 298.15 K; 101.33 kPa; Liquid; Standard Abbe refractometry

CC(=O)OCC(C)C [2-methylpropyl ethanoate]
Details | mass density [kg/m3] | refractive index
[1] | 866.12 ± 0.62 | –
[2] | – | 1.3876 ± 0.0008

CC(C)CO [2-methyl-1-propanol]
Details | mass density [kg/m3] | refractive index
[1] | 797.83 ± 0.61 | –
[2] | – | 1.3937 ± 0.0007

CN(C)C=O [dimethylformamide]
Details | mass density [kg/m3] | refractive index
[1] | 948.72 ± 0.27 | –
[2] | – | 1.4265 ± 0.0007

[1]
Details | vapor or sublimation pressure [kPa]
345.45 K | 6.3 ± 0.23
350.38 K | 7.81 ± 0.23
354.51 K | 9.27 ± 0.24
359.05 K | 11.16 ± 0.24
362.74 K | 12.93 ± 0.24
366.7 K | 15.07 ± 0.24
370.69 K | 17.53 ± 0.24
374.89 K | 20.48 ± 0.24
379.24 K | 23.95 ± 0.24
382.97 K | 27.32 ± 0.25
386.75 K | 31.1 ± 0.25
390.07 K | 34.78 ± 0.25
393.2 K | 38.56 ± 0.26
396.61 K | 43.04 ± 0.26
399.91 K | 47.82 ± 0.26
403.1 K | 52.73 ± 0.27
405.94 K | 57.53 ± 0.27
408.79 K | 62.66 ± 0.27
411.23 K | 67.37 ± 0.28
413.35 K | 71.68 ± 0.28
415.66 K | 76.65 ± 0.29
417.84 K | 81.58 ± 0.29
419.86 K | 86.33 ± 0.29
421.87 K | 91.37 ± 0.3
423.7 K | 96.06 ± 0.3
425.6 K | 101.2 ± 0.31
